{
  "source": "patent EP2919756B1",
  "about": "“SOLID LIPID NANOPARTICLES OF ROXITHROMYCIN FOR HAIR LOSS OR ACNE” (Gdanski Uniwersytet Medyczny, priority 2012, dated 2014)",
  "origin": "cited, not measured here",
  "key": {"[1]": {"system": "human hair follicles", "settings": "human hair follicles in vitro"}, "[2]": {"settings": "external application of 0.5% solution for 24 weeks"}},
  "data": [
    {"compound": "CC[C@H]1OC(=O)[C@H](C)[C@@H](O[C@H]2C[C@@](C)(OC)[C@@H](O)[C@H](C)O2)[C@H](C)[C@@H](O[C@@H]2O[C@H](C)C[C@H](N(C)C)[C@H]2O)[C@](C)(O)C[C@@H](C)/C(=N\\OCOCCOC)[C@H](C)[C@@H](O)[C@]1(C)O", "note": "[roxithromycin, Roxithromycin]", "values": [
      {"measurement": "hair elongation", "setting": "[1]", "value": "caused hair elongation"},
      {"measurement": "follicle's passage to the catagen phase", "setting": "[1]; through inhibition of keratinocyte apoptosis", "value": "inhibit the follicle's passage to the catagen phase"},
      {"measurement": "local or systemic side effects or undesirable action", "setting": "[2]", "value": "no local or systemic side effects or undesirable action was recorded"},
      {"measurement": "thickening of the hair", "setting": "[2]", "value": "Substantial thickening of the hair"},
      {"measurement": "restored hair growth", "setting": "[2]; patients with androgenic hair loss", "value": "more than half of the patient population"}
    ]}
  ]
}
